According to ChEMBL document CHEMBL4418285, “1-cyano-pyrrolidine compounds as usp30 inhibitors” (2018):

Key:
[1] = biological target: T1, Ubiquitin carboxyl-terminal hydrolase 30 (Homo sapiens, UniProt Q70CQ3); assay: Inhibition of untagged human USP30 catalytic domain (57 to 517 residues) expressed in Escherichia coli using TAMRA labeled ubiquitin peptide as substrate preincubated for 30 min followed by substrate addition and measured after 2 hrs by fluorescence polarization assay
T1 sequence (Q70CQ3 whole entry): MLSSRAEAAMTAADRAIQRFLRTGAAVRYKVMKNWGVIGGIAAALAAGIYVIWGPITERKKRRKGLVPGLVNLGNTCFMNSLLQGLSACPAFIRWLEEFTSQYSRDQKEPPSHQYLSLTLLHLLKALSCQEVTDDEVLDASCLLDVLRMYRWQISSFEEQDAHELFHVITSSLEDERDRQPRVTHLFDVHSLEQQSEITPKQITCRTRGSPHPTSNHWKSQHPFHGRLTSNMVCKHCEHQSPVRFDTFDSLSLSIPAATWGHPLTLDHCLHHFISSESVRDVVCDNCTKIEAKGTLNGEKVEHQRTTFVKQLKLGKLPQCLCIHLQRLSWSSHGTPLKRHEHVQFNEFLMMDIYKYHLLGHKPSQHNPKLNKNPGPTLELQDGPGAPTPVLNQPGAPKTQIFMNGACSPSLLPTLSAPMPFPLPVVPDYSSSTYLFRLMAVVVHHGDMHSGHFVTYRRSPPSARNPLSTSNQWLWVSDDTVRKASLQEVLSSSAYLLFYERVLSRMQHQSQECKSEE

[2] = biological target: T1, Ubiquitin carboxyl-terminal hydrolase 30; assay: Inhibition of human USP30 catalytic domain (57 to 517 residues) using ubiquitin-rhodamine 110 as substrate preincubated for 30 min followed by substrate addition and measured after 2 hrs by fluorescence intensity kinetic assay

## N#CN1C[C@H]2CCN(C(=O)Nc3cc(Cl)ccc3F)[C@H]2C1
[1]
  IC50: 0.1 to 1 µM

## N#Cc1ccc(NC(=O)N2CC[C@@H]3CN(C#N)C[C@@H]32)c(F)c1
[1]
  IC50: 0.1 to 1 µM

## N#CN1CC[C@@H](NC(=O)c2ccc(N3CCOCC3)cc2)C1
[2]
  IC50: 0.1 to 1 µM

## COc1cc(-c2cc(C(=O)N(C)[C@@H]3CCN(C#N)C3)on2)ccn1
[2]
  IC50: 0.1 to 1 µM

## N#CN1C[C@H]2CCN(C(=O)N3CCc4ccccc43)[C@H]2C1
[2]
  IC50: 1 to 10 µM
